Converted amounts (≈) assume the structure as drawn.
Tests used:
Format in all cases: functional
[1] = test system: Enterococcus faecalis; assay: Antimicrobial activity against vancomycin-sensitive Enterococcus faecalis isolate 11
[2] = test system: Enterococcus faecalis; assay: Antimicrobial activity against vancomycin-resistant Enterococcus faecalis isolate 13
[3] = test system: Enterococcus faecium; assay: Antimicrobial activity against vancomycin-resistant Enterococcus faecium isolate 14
[4] = test system: Enterococcus faecalis; assay: Antimicrobial activity against vancomycin-resistant Enterococcus faecalis isolate 12
[5] = test system: Staphylococcus aureus; assay: Antimicrobial activity against methicillin-resistant Staphylococcus aureus isolate 6
[6] = test system: Staphylococcus aureus; assay: Antimicrobial activity against vancomycin-insensitive Staphylococcus aureus isolate 10
[7] = test system: Enterococcus faecium; assay: Antimicrobial activity against vancomycin-resistant Enterococcus faecium isolate 15
[8] = test system: Staphylococcus aureus; assay: Antimicrobial activity against methicillin-resistant Staphylococcus aureus isolate 8
[9] = test system: Staphylococcus aureus; assay: Antimicrobial activity against vancomycin-insensitive Staphylococcus aureus isolate 9
[10] = test system: Staphylococcus aureus; assay: Antimicrobial activity against methicillin-sensitive Staphylococcus aureus isolate 1
[11] = test system: Staphylococcus aureus; assay: Antimicrobial activity against methicillin-resistant Staphylococcus aureus isolate 7
[12] = test system: Staphylococcus aureus; assay: Antimicrobial activity against methicillin-resistant Staphylococcus aureus isolate 5
[13] = test system: Staphylococcus aureus; assay: Antimicrobial activity against methicillin-sensitive Staphylococcus aureus isolate 3
[14] = test system: Staphylococcus aureus; assay: Antimicrobial activity against methicillin-sensitive Staphylococcus aureus isolate 4
[15] = test system: Staphylococcus aureus; assay: Antimicrobial activity against methicillin-sensitive Staphylococcus aureus isolate 2

| SMILES | MIC [1] | MIC [2] | MIC [3] | MIC [4] | MIC [5] | MIC [6] | MIC [7] | MIC [8] | MIC [9] | MIC [10] | MIC [11] | MIC [12] | MIC [13] | MIC [14] | MIC [15] |
| --- | --- | --- | --- | --- | --- | --- | --- | --- | --- | --- | --- | --- | --- | --- | --- |
| CC12CC34CC1CC(O2)C3C(C)(CCC(=O)Nc1c(O)ccc(C(=O)O)c1O)C(=O)C=C4c1ccccc1 (stereo not drawn) | ≤ 0.5 µg/mL | 16 µg/mL (≈ 30.9 µM) | 2 µg/mL (≈ 3.86 µM) | 8 µg/mL (≈ 15.5 µM) | < 0.25 µg/mL | 1 µg/mL (≈ 1.93 µM) | ≤ 0.5 µg/mL | 0.5 µg/mL (≈ 0.966 µM) | 1 µg/mL (≈ 1.93 µM) | 0.25 µg/mL (≈ 0.483 µM) | < 0.25 µg/mL | < 0.25 µg/mL | 2 µg/mL (≈ 3.86 µM) | < 0.25 µg/mL | 0.5 µg/mL (≈ 0.966 µM) |
| C[C@@H]1C2OC3(C)CC4(CC13)C(c1ccccc1)=CC(=O)C(C)(CCC(=O)Nc1c(O)ccc(C(=O)O)c1O)C24 (stereo partly drawn) | 8 µg/mL (≈ 15 µM) | 8 µg/mL (≈ 15 µM) | 2 µg/mL (≈ 3.76 µM) | 16 µg/mL (≈ 30.1 µM) | < 0.25 µg/mL | 4 µg/mL (≈ 7.52 µM) | ≤ 0.5 µg/mL | < 0.25 µg/mL | 1 µg/mL (≈ 1.88 µM) | < 0.25 µg/mL | < 0.25 µg/mL | < 0.25 µg/mL | 0.5 µg/mL (≈ 0.941 µM) | < 0.25 µg/mL | 0.5 µg/mL (≈ 0.941 µM) |
| C[C@@H]1C2OC3(C)CC4(C=CC(=O)C(C)(CCC(=O)Nc5c(O)ccc(C(=O)O)c5O)C24)CC13 (stereo partly drawn) | 1 µg/mL (≈ 2.2 µM) | 64 µg/mL (≈ 141 µM) | 2 µg/mL (≈ 4.39 µM) | 32 µg/mL (≈ 70.3 µM) | 0.5 µg/mL (≈ 1.1 µM) | 8 µg/mL (≈ 17.6 µM) | 1 µg/mL (≈ 2.2 µM) | 1 µg/mL (≈ 2.2 µM) | 2 µg/mL (≈ 4.39 µM) | 0.25 µg/mL (≈ 0.549 µM) | 0.5 µg/mL (≈ 1.1 µM) | 0.25 µg/mL (≈ 0.549 µM) | 8 µg/mL (≈ 17.6 µM) | < 0.25 µg/mL | 1 µg/mL (≈ 2.2 µM) |
| CC12CC34C=CC(=O)C(C)(CCC(=O)Nc5c(O)ccc(C(=O)O)c5O)C3C(O1)[C@@H](Br)C2C4 (stereo partly drawn) | 4 µg/mL (≈ 7.69 µM) | > 128 µg/mL | 4 µg/mL (≈ 7.69 µM) | 128 µg/mL (≈ 246 µM) | 2 µg/mL (≈ 3.84 µM) | 16 µg/mL (≈ 30.7 µM) | 16 µg/mL (≈ 30.7 µM) | 4 µg/mL (≈ 7.69 µM) | 8 µg/mL (≈ 15.4 µM) | 1 µg/mL (≈ 1.92 µM) | 1 µg/mL (≈ 1.92 µM) | 1 µg/mL (≈ 1.92 µM) | 32 µg/mL (≈ 61.5 µM) | 1 µg/mL (≈ 1.92 µM) | 8 µg/mL (≈ 15.4 µM) |
| CC1=CC(=O)C(C)(CCC(=O)Nc2c(O)ccc(C(=O)O)c2O)C2C3CC4CC12CC4(C)O3 (stereo not drawn) | ≤ 0.5 µg/mL | 16 µg/mL (≈ 35.1 µM) | 2 µg/mL (≈ 4.39 µM) | 8 µg/mL (≈ 17.6 µM) | 0.5 µg/mL (≈ 1.1 µM) | 4 µg/mL (≈ 8.78 µM) | ≤ 0.5 µg/mL | 2 µg/mL (≈ 4.39 µM) | 4 µg/mL (≈ 8.78 µM) | 0.5 µg/mL (≈ 1.1 µM) | 0.25 µg/mL (≈ 0.549 µM) | 1 µg/mL (≈ 2.2 µM) | 2 µg/mL (≈ 4.39 µM) | 0.5 µg/mL (≈ 1.1 µM) | 4 µg/mL (≈ 8.78 µM) |
| CC1(CCC(=O)Nc2c(O)ccc(C(=O)O)c2O)C(=O)C=CC23CC4CC(OC4(c4ccccc4)C2)C31 (stereo not drawn) | ≤ 0.5 µg/mL | 16 µg/mL (≈ 31.8 µM) | 8 µg/mL (≈ 15.9 µM) | 16 µg/mL (≈ 31.8 µM) | 2 µg/mL (≈ 3.97 µM) | 16 µg/mL (≈ 31.8 µM) | ≤ 0.5 µg/mL | 4 µg/mL (≈ 7.94 µM) | 16 µg/mL (≈ 31.8 µM) | 2 µg/mL (≈ 3.97 µM) | 2 µg/mL (≈ 3.97 µM) | 1 µg/mL (≈ 1.99 µM) | 8 µg/mL (≈ 15.9 µM) | 1 µg/mL (≈ 1.99 µM) | 8 µg/mL (≈ 15.9 µM) |
| CC12CC34C=CC(=O)C(C)(CCC(=O)Nc5c(O)ccc(C(=O)O)c5O)C3C(O1)[C@@H](Cl)C2C4 (stereo partly drawn) | 2 µg/mL (≈ 4.2 µM) | 64 µg/mL (≈ 134 µM) | 8 µg/mL (≈ 16.8 µM) | 64 µg/mL (≈ 134 µM) | 0.5 µg/mL (≈ 1.05 µM) | 8 µg/mL (≈ 16.8 µM) | 2 µg/mL (≈ 4.2 µM) | 4 µg/mL (≈ 8.4 µM) | 8 µg/mL (≈ 16.8 µM) | 1 µg/mL (≈ 2.1 µM) | 0.25 µg/mL (≈ 0.525 µM) | 0.25 µg/mL (≈ 0.525 µM) | 8 µg/mL (≈ 16.8 µM) | 0.5 µg/mL (≈ 1.05 µM) | 8 µg/mL (≈ 16.8 µM) |
| Cc1onc(-c2ccccc2)c1C(=O)N[C@@H]1C(=O)N2[C@@H]1SC(C)(C)[C@@H]2C(=O)O [OXACILLIN] |  |  |  |  | > 32 µg/mL | > 32 µg/mL |  | > 32 µg/mL | > 32 µg/mL | < 0.25 µg/mL | > 32 µg/mL | > 32 µg/mL | < 0.25 µg/mL | < 0.25 µg/mL | < 0.25 µg/mL |
| CC12C[C@@]34C=CC(=O)[C@@](C)(CCC(=O)Nc5c(O)ccc(C(=O)O)c5O)C3[C@H](CC1C4)O2 (stereo partly drawn) [PLATENSIMYCIN] | ≤ 0.5 µg/mL | 8 µg/mL (≈ 18.1 µM) | ≤ 0.5 µg/mL | 8 µg/mL (≈ 18.1 µM) | 0.25 µg/mL (≈ 0.566 µM) | 2 µg/mL (≈ 4.53 µM) | ≤ 0.5 µg/mL | 1 µg/mL (≈ 2.27 µM) | 2 µg/mL (≈ 4.53 µM) | 1 µg/mL (≈ 2.27 µM) | 0.25 µg/mL (≈ 0.566 µM) | 0.25 µg/mL (≈ 0.566 µM) | 8 µg/mL (≈ 18.1 µM) | < 0.25 µg/mL | 2 µg/mL (≈ 4.53 µM) |
| CN[C@H](CC(C)C)C(=O)N[C@H]1C(=O)N[C@@H](CC(N)=O)C(=O)N[C@H]2C(=O)N[C@H]3C(=O)N[C@H](C(=O)N[C@H](C(=O)O)c4cc(O)cc(O)c4-c4cc3ccc4O)[C@H](O)c3ccc(c(Cl)c3)Oc3cc2cc(c3O[C@@H]2O[C@H](CO)[C@@H](O)[C@H](O)[C@H]2O[C@H]2C[C@](C)(N)[C@H](O)[C@H](C)O2)Oc2ccc(cc2Cl)[C@H]1O [VANCOMYCIN] | 2 µg/mL (≈ 1.38 µM) |  | > 128 µg/mL |  |  |  | > 128 µg/mL |  |  |  |  |  |  |  |  |

Source: ChEMBL document CHEMBL1156331, “7-Phenylplatensimycin and 11-methyl-7-phenylplatensimycin: more potent analogs of platensimycin” (2010)
